# Test system: mice with induced myocardial infarction
# Experiment: Post-MI chronic heart failure in mice, echocardiography
# Format: in vivo
# Description: The purpose of this experiment is to study the effect of vibegron on structural remodeling (e.g., hypertrophy and/or fibrosis) and functional remodeling (e.g, ventricular function) in mice with chronic HF after a myocardial infarction (MI). The specific aims of these studies will be to determine the dose response treatment effects on cardiac remodeling by measuring parameters of cardiac structure and function using non-invasive, invasive, morphological, and histological assessments of mice after MI.
# Myocardial infarction in the mouse is a commonly used experimental model for chronic ischemic heart failure. Due to complete ligation of the left anterior descending coronary artery, there is a large left ventricular infarct that produces adverse LV remodeling and significant dysfunction within 2 weeks post-MI. There also is significant fibrosis in this model and it is robust and reproducible with low mortality due to the surgical procedure. This model has been used for over 2 decades (see, e.g., Gao, E. et al., Circulation Research, 2010; 107: 1445-1453) and has been used to test potential novel HF therapeutics (Schumacher, S. et al. Science Translational Medicine, 2015; 7: 277).
# Myocardial infarction was induced in 10-12 week C57B/6 wild-type mice and after 2 weeks echo cardiograms were used to assess the MI severity in each mouse. Mice were randomized for treatment based on similarity and severity of the induced infarct. The mice were started with either vibegron or vehicle (1-3 doses) administered by continuous infusion using 2 week minipumps (Azlet Corp.) that were filled with the appropriate dose and implanted subcutaneously on the back of each animal in the region of the scapula. The minipumps were replaced with new minipumps in the same location at the 2 week time point and dosed for 4 weeks in total. Cardiac function was assessed by echocardiography (Echo) at 0, 2, 4, and 6 weeks. Some mice were subjected to terminal catheterization to measure hemodynamic pressures and adrenergic responsiveness.
# Sham surgery groups treated with vehicle and highest dose of vibegron were included as controls. One group of post-MI mice treated with vehicle was also included in the study as a control. Two groupings of the 6 conditions were tested to allow for multiple replicates. There were 7 to 8 mice per condition in each group. The 2 groups studied were staggered by 3-4 weeks.
# At this point, 6 experimental conditions (A-F below)×2 groups (staggered for reproducibility) were tested. Vibegron was provided in a form dissolved and delivered via an osmotic minipump placed under the skin of the mouse. The vehicle was used for negative control animals. Three (3) doses of vibegron (low, medium and high) were tested.
# • A. Sham—vehicle • B. Sham—vibegron (high dose) • C. MI—vehicle • D. MI—vibegron—low dose • E. MI—vibegron—medium dose • F. MI—vibegron—high dose Group 2 (7 or 8 Mice Per Group) Repeated 3-4 Weeks after Group 1 • A. Sham—vehicle • B. Sham—vibegron (high dose) • C. MI—vehicle • D. MI—vibegron—low dose • E. MI—vibegron—medium dose • F. MI—vibegron—high dose
# • 1. Day 0 (after 1-2 weeks acclimation)—pre-surgery Echo • 2. Perform LAD Ligation (MI) or Sham procedure • 3. Day 14—Echo and randomly assign groups • 4. Day 14—begin administration of vehicle and drug for 4 weeks • 5. Day 28—Echo (operator blinded to groups)—change pumps for another 2 week dosing • 6. Day 42—Echo (operator blinded to groups) • 7. Day 42—Some were used for hemodynamics and ISO dose response and all animals sacrificed. Some were used for histology and some for RNA/Protein analysis. Blood was also collected at the time of sacrifice to determine serum concentrations.
# Surgical Methods: As described in Gao, E. et al., Circulation Research, 2010; 107: 1445-1453 and Schumacher, S. et al. Science Translational Medicine, 2015; 7: 277, mice were anesthetized and complete ligation of the LAD was performed through a partial thoracotomy.
# [1] = MI mice, high dose (10 mg/kg), Baseline (pre-surgery)
# [2] = MI mice, high dose (10 mg/kg), Week 2 (before start of dosing)
# [3] = MI mice, high dose (10 mg/kg), Week 4 (2 weeks after dosing)
# [4] = MI mice, high dose (10 mg/kg), Week 6 (4 weeks of treatment)
# [5] = MI mice, low dose (1 mg/kg), Baseline (pre-surgery)
# [6] = MI mice, low dose (1 mg/kg), Week 2 (before start of dosing)
# [7] = MI mice, low dose (1 mg/kg), Week 4 (2 weeks after dosing)
# [8] = MI mice, low dose (1 mg/kg), Week 6 (4 weeks of treatment)
# [9] = MI mice, medium dose (3 mg/kg), Baseline (pre-surgery)
# [10] = MI mice, medium dose (3 mg/kg), Week 2 (before start of dosing)
# [11] = MI mice, medium dose (3 mg/kg), Week 4 (2 weeks after dosing)
# [12] = MI mice, medium dose (3 mg/kg), Week 6 (4 weeks of treatment)
# [13] = sham mice, high dose (10 mg/kg), Baseline (pre-surgery)
# [14] = sham mice, high dose (10 mg/kg), Week 2 (before start of dosing)
# [15] = sham mice, high dose (10 mg/kg), Week 4 (2 weeks after dosing)
# [16] = sham mice, high dose (10 mg/kg), Week 6 (4 weeks of treatment)
smiles,measurement,setting,value
"O=C(Nc1ccc(C[C@@H]2CC[C@H]([C@H](O)c3ccccc3)N2)cc1)[C@@H]1CCc2nccc(=O)n21 [Vibegron, (6S)—N-[4-[[(2S,5R)-5-[(R)-hydroxy(phenyl)methyl]pyrrolidin-2-yl]methyl]phenyl]-4-oxo-7,8-dihydro-6H-pyrrolo[1,2-a]pyrimidine-6-carboxamide]",Average % Ejection Fraction,[1],62.06%
same,Average % Fractional Shortening,[1],32.99%
same,Cardiac Output,[1],20.56 mL/min
same,Stroke Volume,[1],43.30 µL
same,Average % Ejection Fraction,[2],38.39%
same,Average % Fractional Shortening,[2],18.91%
same,Cardiac Output,[2],18.93 mL/min
same,Stroke Volume,[2],40.79 µL
same,Average % Ejection Fraction,[3],42.59%
same,Average % Fractional Shortening,[3],21.61%
same,Cardiac Output,[3],23.29 mL/min
same,Cardiac Output % Improvement Relative to Vehicle,[3],37.40%
same,Stroke Volume,[3],46.83 µL
same,Stroke Volume % Improvement Relative to Vehicle,[3],40.84%
same,Average % Ejection Fraction,[4],42.68%
same,Average % Fractional Shortening,[4],21.76%
same,Cardiac Output,[4],25.09 mL/min
same,Cardiac Output % Improvement Relative to Vehicle,[4],61.35%
same,Stroke Volume,[4],47.22 µL
same,Stroke Volume % Improvement Relative to Vehicle,[4],57.87%
same,Average % Ejection Fraction,[5],59.50%
same,Average % Fractional Shortening,[5],31.22%
same,Cardiac Output,[5],20.00 mL/min
same,Stroke Volume,[5],42.74 µL
same,Average % Ejection Fraction,[6],37.52%
same,Average % Fractional Shortening,[6],18.44%
same,Cardiac Output,[6],18.06 mL/min
same,Stroke Volume,[6],39.30 µL
same,Average % Ejection Fraction,[7],29.77%
same,Average % Fractional Shortening,[7],14.29%
same,Cardiac Output,[7],15.45 mL/min
same,Stroke Volume,[7],32.76 µL
same,Average % Ejection Fraction,[8],31.64%
same,Average % Fractional Shortening,[8],15.21%
same,Cardiac Output,[8],19.19 mL/min
same,Cardiac Output % Improvement Relative to Vehicle,[8],23.40%
same,Stroke Volume,[8],37.54 µL
same,Stroke Volume % Improvement Relative to Vehicle,[8],25.51%
same,Average % Ejection Fraction,[9],58.11%
same,Average % Fractional Shortening,[9],30.07%
same,Cardiac Output,[9],21.05 mL/min
same,Stroke Volume,[9],44.72 µL
same,Average % Ejection Fraction,[10],37.18%
same,Average % Fractional Shortening,[10],18.14%
same,Cardiac Output,[10],18.94 mL/min
same,Stroke Volume,[10],40.37 µL
same,Average % Ejection Fraction,[11],35.95%
same,Average % Fractional Shortening,[11],17.57%
same,Cardiac Output,[11],19.51 mL/min
same,Cardiac Output % Improvement Relative to Vehicle,[11],15.10%
same,Stroke Volume,[11],39.00 µL
same,Stroke Volume % Improvement Relative to Vehicle,[11],17.29%
same,Average % Ejection Fraction,[12],35.55%
same,Average % Fractional Shortening,[12],17.36%
same,Cardiac Output,[12],20.90 mL/min
same,Cardiac Output % Improvement Relative to Vehicle,[12],34.41%
same,Stroke Volume,[12],41.69 µL
same,Stroke Volume % Improvement Relative to Vehicle,[12],39.38%
same,Onset of action,"after initiation of treatment, as shown in the examples",≤ 2 weeks
same,Adverse effects in healthy hearts (echocardiographic function versus baseline),"sham mice, high dose",no adverse effects
same,Average % Ejection Fraction,[13],59.04%
same,Average % Fractional Shortening,[13],30.87%
same,Cardiac Output,[13],22.09 mL/min
same,Stroke Volume,[13],42.25 µL
same,Average % Ejection Fraction,[14],62.36%
same,Average % Fractional Shortening,[14],33.26%
same,Cardiac Output,[14],23.72 mL/min
same,Stroke Volume,[14],45.57 µL
same,Average % Ejection Fraction,[15],61.08%
same,Average % Fractional Shortening,[15],32.32%
same,Cardiac Output,[15],22.53 mL/min
same,Stroke Volume,[15],44.44 µL
same,Average % Ejection Fraction,[16],61.18%
same,Average % Fractional Shortening,[16],32.45%
same,Cardiac Output,[16],23.63 mL/min
same,Stroke Volume,[16],45.97 µL
